# Test results as given in US4783462A, “3(2H)pyridazinone, and anti-allergic agent containing it” (Nissan Chemical Industries Ltd., priority 1985, dated 1988).
# Experiments:
# [1] = tested on: LTC4; experiment: Antagonism in isolated guinea-pig trachea, Test method (i) (Table 3, given as LTC4 antagonism); format: cell-based; conditions: Cavia porcellus, 5 min, test compound 10^-5 g/ml, given as LTC4 antagonisms
# Method: (i) LTC4 and LTD4 antagonisms in guinea-pig trachea
# Antagonisms for LTC4 and LTD4 were determined in isolated guinea-pig trachea prepared as spiral strip. Tracheal preparations were suspended under 1 g tension in 10 ml organ baths and they were incubated for 1 hr prior to use. Contractile responses to LTC4 (2×10^-8 g/ml) and LTD4 (2×10^-8 g/ml) were obtained after the maximal response to histamine (10^-4 M). Test compounds dissolved in 100% dimethyl sulfoxide were added to the organ baths (final concentration of 10^-5 g/ml or 10^-6 g/ml) 5 min prior to LTC4 and LTD4 addition, and then contractile responses to LTC4 and LTD4 were compared with those of control which was obtained from a paired trachea in the absence of test compounds. LTC4 - and LTD4 -induced contractions were expressed as a percentage of the maximal response to histamine. The antagonism was determined as follows:
# (§1) Antagonism (%)=(1.0-% contraction in test/% contraction in […]
# [2] = tested on: ddY strain male mice; experiment: Acute toxicity test, Test method-(2), intraperitoneal; format: in vivo; conditions: 7 days
# Method: The lethal ratio was determined in ddY strain male mice (4 weeks old) at 7 days after the intraperitoneal injection of test compounds.
# [3] = tested on: LTD4; experiment: LTD4 antagonism in isolated guinea-pig trachea with indomethacin, Test method (ii) (Table 4); format: cell-based; conditions: Cavia porcellus, 0.5 h, LTD4 2×10^-8 g/ml, test compound 10^-6 g/ml, 30 min prior, 5 μmol indomethacin
# Method: (ii) LTD4 antagonism in guinea-pig trachea
# Antagonism for LTD4 was determined in isolated guinea-pig trachea prepared as spiral strip. Tracheal preparations were suspended under 1 g tension in 10 ml organ baths containing 5 μmol of indomethacin and they were incuated for 1 hr prior to use. Contractile responses to LTD4 (2×10^-8 g/ml) were obtained after the maximal response to histamine (10^-4 M). Test compounds dissolved in 100% dimethyl sulfoxide were added to the organ baths (final concentration of 10^-6 g/ml) 30 min prior to LTD4 addition, and then contractile responses to LTD4 were compared with those of control which was obtained from a paired trachea in the absence of test compounds. LTD4 -induced contractions were expressed as a percentage of the maximal response to histamine. The antagonism was determined as follows:
# as §1
Structure (SMILES),inhibition at 10 µg/mL [1] [%],other results
"CCCc1cc(C#N)ccc1OCCCNc1cnn(C(C)(C)C)c(=O)c1Cl [Compound No. 1, 4-Chloro-5-[3-(2-n-propyl-4-cyanophenoxy)propylamino]-2-t-butyl-3(2H)pyridazinone]",49,Lethal ratio (Death number/Experimental number) ([2]; 200 mg/kg intraperitoneal): 0/2; Lethal ratio (Death number/Experimental number) ([2]; 400 mg/kg intraperitoneal): 0/1
CCOC(=O)c1ccc(OCCCNc2cnn(CC)c(=O)c2Cl)c(Cl)c1 [Compound No. 10],46,Lethal ratio (Death number/Experimental number) ([2]; 200 mg/kg intraperitoneal): 0/2; Lethal ratio (Death number/Experimental number) ([2]; 400 mg/kg intraperitoneal): 0/1
COc1cccc(SCCCNc2cnn(C(C)(C)C)c(=O)c2Cl)c1 [Compound No. 14],40,Lethal ratio (Death number/Experimental number) ([2]; 200 mg/kg intraperitoneal): 0/2; Lethal ratio (Death number/Experimental number) ([2]; 400 mg/kg intraperitoneal): 0/1
CCCc1cc(C(N)=O)ccc1OCCCNc1cnn(C(C)C)c(=O)c1Br [Compound No. 122],,inhibition at 1 µg/mL [3]: 94%
CCCCc1cc(C(=O)OC)ccc1OCCCNc1cnn(C(C)C)c(=O)c1Br [Compound No. 126],,inhibition at 1 µg/mL [3]: 90%
"CCCc1cc(C#N)ccc1OCC(O)CNc1cnn(C(C)C)c(=O)c1Cl (centres unmarked) [Compound No. 145, 4-chloro-5-[3-(2-n-propyl-4-cyanophenoxy)-2-hydroxypropylamino]-2-i-propyl-3(2H)pyridazinone]",85,Lethal ratio (Death number/Experimental number) ([2]; 200 mg/kg intraperitoneal): 0/2; Lethal ratio (Death number/Experimental number) ([2]; 400 mg/kg intraperitoneal): 0/1
"CCCCc1cc(C(N)=O)ccc1OCCCNc1cnn(CC)c(=O)c1Br [Compound No. 180, 4-bromo-5-[3-(2-n-butyl-4-carbamoylphenoxy)propylamino]-2-ethyl-3(2H) pyridazinone]",,inhibition at 1 µg/mL [3]: 88%
"CCCCc1cc(C#N)ccc1OCCCNc1cnn(CC)c(=O)c1Br [Compound No. 181, 4-Bromo-5-[3-(2-n-butyl-4-cyanophenoxy)propylamino]-2-ethyl-3(2H)pyridazinone]",,inhibition at 1 µg/mL [3]: 70%
CCn1ncc(NCCCOc2ccc(C(=O)OC)cc2Cl)c(Cl)c1=O [compound 13],53,Lethal ratio (Death number/Experimental number) ([2]; 200 mg/kg intraperitoneal): 0/2; Lethal ratio (Death number/Experimental number) ([2]; 400 mg/kg intraperitoneal): 0/1
CCCc1c(OCCCOc2cnn(CC)c(=O)c2Cl)ccc2c(=O)cc(C(=O)O)oc12 [compound 29],18,Lethal ratio (Death number/Experimental number) ([2]; 200 mg/kg intraperitoneal): 0/2; Lethal ratio (Death number/Experimental number) ([2]; 400 mg/kg intraperitoneal): 0/1
COc1cccc(OCCCOc2cnn(C(C)C)c(=O)c2Cl)c1 [compound 35],72,Lethal ratio (Death number/Experimental number) ([2]; 200 mg/kg intraperitoneal): 0/2; Lethal ratio (Death number/Experimental number) ([2]; 400 mg/kg intraperitoneal): 0/1
COc1cccc(OCCOc2cnn(C(C)C)c(=O)c2Cl)c1 [compound 45],27,Lethal ratio (Death number/Experimental number) ([2]; 200 mg/kg intraperitoneal): 0/2; Lethal ratio (Death number/Experimental number) ([2]; 400 mg/kg intraperitoneal): 0/1
CCCc1cc(C(=O)O)ccc1OCCCOc1cnn(C(C)C)c(=O)c1Cl [compound 86],59,
CCCc1cc(C#N)ccc1OCCCOc1cnn(C(C)C)c(=O)c1Cl [compound 87],60,
COC(=O)c1ccc(OCCCNc2cnn(C(C)C)c(=O)c2Cl)c(C(C)C)c1 [compound 88],97,
CC(C)c1cc(C(=O)O)ccc1OCCCNc1cnn(C(C)C)c(=O)c1Cl [compound 89],52,
CCOc1cc(C(=O)OC)ccc1OCCCNc1cnn(C(C)C)c(=O)c1Cl [compound 90],83,
CCOc1cc(C(=O)O)ccc1OCCCNc1cnn(C(C)C)c(=O)c1Cl [compound 91],14,
CCc1cc(C=CC(=O)O)ccc1OCCCNc1cnn(C(C)C)c(=O)c1Cl [compound 95],59,
CCc1cc(C(=O)OC)ccc1OCCCNc1cnn(CC)c(=O)c1Cl [compound 96],77,
CCc1cc(C(=O)O)ccc1OCCCNc1cnn(C(C)C)c(=O)c1Cl [compound 97],62,

Structure (SMILES),inhibition at 10 µg/mL [1] [%],other results
CCn1ncc(NCCCOc2ccc(C)cc2OC)c(Cl)c1=O [compound 99],51,
COc1cc(C)ccc1OCCCNc1cnn(C(C)C)c(=O)c1Cl [compound 100],66,
CCn1ncc(NCCCOc2ccc(C(=O)O)cc2C(C)C)c(Cl)c1=O [compound 104],57,
CCc1cc(OC)ccc1OCCCNc1cnn(CC)c(=O)c1Cl [compound 106],93,
CCc1cc(OC)ccc1OCCCNc1cnn(C(C)C)c(=O)c1Cl [compound 107],85,
CCCCc1cc(C(=O)OC)ccc1OCCCNc1cnn(C(C)C)c(=O)c1Cl [compound 110],77,
CCCc1cc(C(=O)O)ccc1OCCCNc1cnn(CC)c(=O)c1Br [compound 119],100,
CCCc1cc(C(=O)OC)ccc1OCCCNc1cnn(C(C)C)c(=O)c1Br [compound 124],,inhibition at 1 µg/mL [3]: 92%
CCCc1cc(C(=O)O)ccc1OCCCNc1cnn(C(C)C)c(=O)c1Br [compound 125],,inhibition at 1 µg/mL [3]: 84%
CCCc1cc(OC)ccc1OCCCNc1cnn(CC)c(=O)c1Br [compound 135],,inhibition at 1 µg/mL [3]: 57%
CCc1cc(OC)ccc1OCCCNc1cnn(CC)c(=O)c1Br [compound 137],,inhibition at 1 µg/mL [3]: 53%
COc1cccc(OCC(O)COc2cnn(C(C)C)c(=O)c2Cl)c1 (centres unmarked) [compound 140],41,
CCOc1ccccc1OCC(O)COc1cnn(C(C)C)c(=O)c1Cl (centres unmarked) [compound 141],54,
CC(C)c1ccccc1OCC(O)COc1cnn(C(C)C)c(=O)c1Cl (centres unmarked) [compound 142],69,Lethal ratio (Death number/Experimental number) ([2]; 200 mg/kg intraperitoneal): 0/2; Lethal ratio (Death number/Experimental number) ([2]; 400 mg/kg intraperitoneal): 0/1
CCCc1ccccc1OCC(O)CNc1cnn(C(C)C)c(=O)c1Cl (centres unmarked) [compound 144],84,
CCCc1cc(C(=O)O)ccc1OCC(O)CNc1cnn(C(C)C)c(=O)c1Cl (centres unmarked) [compound 146],14,
CCCc1cc(C(=O)OC)ccc1OCC(O)CNc1cnn(C(C)C)c(=O)c1Cl (centres unmarked) [compound 147],66,
CCCc1cc(C(N)=O)ccc1OCC(O)CNc1cnn(C(C)C)c(=O)c1Cl (centres unmarked) [compound 148],17,
CCCc1cc(C#N)ccc1OCC(=O)CNc1cnn(C(C)C)c(=O)c1Cl [compound 149],81,
CCn1ncc(NCC(O)COS(=O)(=O)c2ccc(C)cc2)c(Cl)c1=O (centres unmarked) [compound 150],16,
CC(C)n1ncc(NCC(O)COc2ccccc2Cl)c(Cl)c1=O (centres unmarked) [compound 151],47,

Structure (SMILES),inhibition at 10 µg/mL [1] [%],other results
CCCc1cc(OC)ccc1OCC(O)CNc1cnn(CC)c(=O)c1Cl (centres unmarked) [compound 152],60,
CCCc1cc(C(=O)OC)ccc1SCC(=O)CNc1cnn(C(C)C)c(=O)c1Cl [compound 156],56,
CCn1ncc(NCC(O)COc2ccccc2Cl)c(Cl)c1=O (centres unmarked) [compound 159],44,
CCCc1cc(OC)ccc1OCC(O)CNc1cnn(C(C)C)c(=O)c1Cl (centres unmarked) [compound 160],70,
CCCc1cc(C(=O)O)ccc1OCC(CN(C)c1cnn(C(C)C)c(=O)c1Cl)OC (centres unmarked) [compound 165],33,
COC(COc1ccc(C(=O)C(C)CC(=O)O)cc1)CN(C)c1cnn(C(C)C)c(=O)c1Cl (centres unmarked) [compound 168],21,
CC(C)c1ccccc1OCC(O)COc1cnn(C(C)C)c(=O)c1 (centres unmarked) [compound 169],50,
COc1ccc(NCC(O)COc2cnn(C(C)C)c(=O)c2Cl)cc1OC (centres unmarked) [compound 170],17,
CCCc1cc(C#N)ccc1OCC(=O)COc1cnn(C(C)C)c(=O)c1Cl [compound 173],35,
CCCc1cc(C(=O)OC)ccc1OCC(O)COc1cnn(C(C)C)c(=O)c1Cl (centres unmarked) [compound 174],78,
CCCc1cc(C(=O)OC)ccc1OCC(COc1cnn(C(C)C)c(=O)c1Cl)OC (centres unmarked) [compound 175],55,
CCCCc1cc(C(=O)OC)ccc1OCCCNc1cnn(CC)c(=O)c1Br [compound 178],,inhibition at 1 µg/mL [3]: 69%
CCCCc1cc(C(=O)O)ccc1OCCCNc1cnn(CC)c(=O)c1Br [compound 179],,inhibition at 1 µg/mL [3]: 63%
CCCc1cc(O)ccc1OCCCNc1cnn(CC)c(=O)c1Br [compound 197],,inhibition at 1 µg/mL [3]: 82%
CCCc1cc(O)ccc1OCCCNc1cnn(C(C)C)c(=O)c1Br [compound 198],,inhibition at 1 µg/mL [3]: 86%
CCc1cc(C=O)ccc1OCCCNc1cnn(CC)c(=O)c1Br [compound 199],,inhibition at 1 µg/mL [3]: 65%
CCc1cc(C=O)ccc1OCCCNc1cnn(C(C)C)c(=O)c1Br [compound 200],,inhibition at 1 µg/mL [3]: 81%
CCCCCc1cc(C(=O)O)ccc1OCCCNc1cnn(CC)c(=O)c1Cl [compound 202],,inhibition at 1 µg/mL [3]: 89%
CCCCCc1cc(C(N)=O)ccc1OCCCNc1cnn(CC)c(=O)c1Cl [compound 203],,inhibition at 1 µg/mL [3]: 94%
CCCCCc1cc(C(=O)OC)ccc1OCCCNc1cnn(CC)c(=O)c1Br [compound 204],,inhibition at 1 µg/mL [3]: 95%
